We go through two compounds from PMC10323112 (Cancer Science, 2023).

For series [1] the following is noted: 30 mg/kg.
Series [2] is described as follows: in vitro. As to conditions: human, Caco-2.
Series [3] in a line: in vivo. The following applies: female, Balbc nude, mouse, 30 mg/kg.
Series [4] can be described thus: in vitro. The following applies: CD-1, mouse, plasma.
The nature of series [5]: in vitro. It is filed as in vitro ADME. As to conditions: CD-1, mouse, brain homogenate.
The test system of series [6] is p-AKT in NCI-H1993 (KRAS^WT, PIK3CA^WT) cells. Description: Basal p-AKT assay. The following applies: NCI‐H1993 (KRAS^WT, PIK3CA^WT) cell line. It is filed as cell-based, human.
In series [7] the test system is p-AKT in NCI-H358 (KRAS^G12C, PIK3CA^WT) cells. Description: Basal p-AKT assay. It is filed as cell-based, human. The following applies: NCI‐H358 (KRAS^G12C, PIK3CA^WT) cell line.
Series [8] concerns NCI-H1993 (KRAS^WT). Description: Proliferation assay. As to conditions: NCI-H1993 (Figure S2D). The series is classed as cell-based, human.
The test system of series [9] is NCI-H358 (KRAS^G12C). Description: Proliferation assay. The series is classed as cell-based, human. As to conditions: NCI-H358 (Figure S2D).

A word on the Papp A→B: it is how fast a substance crosses the layer from the apical side. As usually defined, the AUC is the area under the concentration-time curve, a measure of exposure. A low value points to low exposure. As usually defined, the fraction unbound is the share of the substance not bound to proteins or other matrix.

In the case of `C=C(F)C(=O)N1CCN(c2nc(OC[C@@H]3CCCN3C)nc3c2CCN(c2cccc4cccc(Cl)c24)C3)C[C@@H]1CC#N` [Adagrasib, adagrasib], the “Unbound brain AUC” value in series [1] (AUCbrain × fu,brain) was determined as 0.0009 µM·h. For the same compound, the “Unbound plasma AUC” value in series [1] (AUCplasma × fu,plasma) worked out at 0.089 µM·h. The same compound came in with a Papp A→B at 120 min, 10 μM in series [2] of 0.8 ×10⁻⁶ cm/s. Besides, in series [3], the AUC turned out to be 44.3 µM·h and the Kp uu was 0.01. The compound also came in with a free fraction (fraction unbound) at 5 h, 1 μM in [4] of 0.002. For the same compound, the fraction unbound at 5 h, 1 μM in series [5] worked out at 0.001.

Turning to `C[C@H](Nc1ccc2c(c1)OCCn1cc(N3C(=O)OC[C@H]3C(F)F)nc1-2)C(N)=O` [GDC-0077], the “effect on p‐AKT level” value in series [6] and in series [7] was “reduced” in each case. For the same compound, the “inhibitory effect on cell proliferation” value in series [8] and in series [9] was “very weak inhibitory effect” in each case.
